In US8697701B2, “Solid germicidal composition and disinfection method” (Ueno Fine Chemicals Industry, Ltd., priority 2012, dated 2014):

Assays:
[1] = test system: Serratia marcescens (bacterium 2 isolated from a food factory); experiment: Test for inhibition of drug resistance development (repeated MIC, broth microdilution); type: cell-based; settings: sample bacteria (iii) and (iv), eight MIC rounds, as compared to DDAC
Method: According to the standard method (broth microdilution method) of Japanese Society of Chemotherapy, minimal inhibitory concentration (MIC) was continuously measured. The compositions shown in Table 7 were diluted with sterile water to obtain drug solutions with a concentration of the composition of 0.007 to 1.792% by weight, and a nutrient broth medium adjusted to a concentration twice as high as the specified concentration (manufactured by Eiken Chemical Co., Ltd., normal bouillon medium ‘Eiken’ E-MC35) was added thereto in an amount equal to the drug solution. The obtained mixture was stirred and then dispensed to a microtiter plate (96 well) in an amount of 150 μl/well. […] The diluted culture was then seeded in an amount of 7.5 μl/well to the microtiter plate containing the medium prepared as described above. The plate was incubated in a constant temperature oven at 30° C. for 48 hours, the growth of the bacterium was checked by visual inspection, and MIC was determined. […] Using the diluted culture, MIC was determined again in the same manner as described above. MIC was determined eight times in total by repeating the above procedure, and changes in MIC were confirmed.
Sample Bacterium (iii): Serratia marcescens (Bacterium 2 Isolated from a Food Factory)

[2] = cited from earlier work
[3] = test system: Serratia marcescens (bacterium 1 isolated from a food factory); settings: preliminary test, sensitization time 5 minutes
Method: The following sample bacterium (i) isolated from a food factory was cultured in a BHI bouillon medium at 30° C. for 24 hours. A 0.03 ml of a liquid obtained by diluting the cultured bacterium with a physiological saline solution to the concentration on the order of 10^6 cfu/ml was mixed with respective 3 ml of aqueous solutions, each of which was obtained by diluting an aqueous solution of the above solid germicidal composition (1.0% by weight) with sterile water so that the concentration of the solid germicidal composition would be 0.01, 0.02 and 0.04% by weight, respectively. The obtained mixture was then left at 25° C. for 5 minutes. After sensitization time elapsed, stirring was carried out again. One platinum loop of each mixture was taken and inoculated in 10 ml of a BHI bouillon medium. The medium was incubated at 30° C. for 48 hours. A BHI bouillon medium without inoculation of the bacterium was used as a reference, and turbidity of the medium was compared with the reference by visual inspection to determine the germicidal effect of the aqueous solution of the solid germicidal composition on the bacterium.
Sample Bacterium (i): Serratia marcescens (Bacterium 1 Isolated from a Food Factory)

Row | SMILES | solubility in water at 20° C. [2] | also measured
1 | CCCCCCCCCC[n+]1ccn(CCCCCCCCCCn2cc[n+](CCCCCCCCCC)c2C)c1C.[Cl-].[Cl-] [1,10-di(3-decyl-2-methylimidazolium)decane dichloride] |  | development of drug-resistant microorganisms [1]: hardly developed
2 | O=C(O)/C=C/C(=O)O [Fumaric acid] | (solubility 0.51%) | 
3 | O=C(O)CC(O)C(=O)O (stereo not shown) [Malic acid] | (solubility 55.8%) | 
4 | CCCCCCCCCC[N+](C)(C)CCCCCCCCCC.[Cl-] [didecyl dimethyl ammonium chloride] |  | maximum concentration up to which proliferation of sample bacterium (i) was not inhibited [3]: > 80 ppm
